Experimental findings from the Kinase Knowledgebase extract (Sharma et al. 2016) are described below.

In general, IC50 refers to the concentration at which inhibition is half-maximal. Read a low IC50 as greater potency.

Each structure is given as a SMILES string. Where only a bound is given, the exact number is not on record here.

ROCK2 (human), sequence (O75116 whole entry, looked up): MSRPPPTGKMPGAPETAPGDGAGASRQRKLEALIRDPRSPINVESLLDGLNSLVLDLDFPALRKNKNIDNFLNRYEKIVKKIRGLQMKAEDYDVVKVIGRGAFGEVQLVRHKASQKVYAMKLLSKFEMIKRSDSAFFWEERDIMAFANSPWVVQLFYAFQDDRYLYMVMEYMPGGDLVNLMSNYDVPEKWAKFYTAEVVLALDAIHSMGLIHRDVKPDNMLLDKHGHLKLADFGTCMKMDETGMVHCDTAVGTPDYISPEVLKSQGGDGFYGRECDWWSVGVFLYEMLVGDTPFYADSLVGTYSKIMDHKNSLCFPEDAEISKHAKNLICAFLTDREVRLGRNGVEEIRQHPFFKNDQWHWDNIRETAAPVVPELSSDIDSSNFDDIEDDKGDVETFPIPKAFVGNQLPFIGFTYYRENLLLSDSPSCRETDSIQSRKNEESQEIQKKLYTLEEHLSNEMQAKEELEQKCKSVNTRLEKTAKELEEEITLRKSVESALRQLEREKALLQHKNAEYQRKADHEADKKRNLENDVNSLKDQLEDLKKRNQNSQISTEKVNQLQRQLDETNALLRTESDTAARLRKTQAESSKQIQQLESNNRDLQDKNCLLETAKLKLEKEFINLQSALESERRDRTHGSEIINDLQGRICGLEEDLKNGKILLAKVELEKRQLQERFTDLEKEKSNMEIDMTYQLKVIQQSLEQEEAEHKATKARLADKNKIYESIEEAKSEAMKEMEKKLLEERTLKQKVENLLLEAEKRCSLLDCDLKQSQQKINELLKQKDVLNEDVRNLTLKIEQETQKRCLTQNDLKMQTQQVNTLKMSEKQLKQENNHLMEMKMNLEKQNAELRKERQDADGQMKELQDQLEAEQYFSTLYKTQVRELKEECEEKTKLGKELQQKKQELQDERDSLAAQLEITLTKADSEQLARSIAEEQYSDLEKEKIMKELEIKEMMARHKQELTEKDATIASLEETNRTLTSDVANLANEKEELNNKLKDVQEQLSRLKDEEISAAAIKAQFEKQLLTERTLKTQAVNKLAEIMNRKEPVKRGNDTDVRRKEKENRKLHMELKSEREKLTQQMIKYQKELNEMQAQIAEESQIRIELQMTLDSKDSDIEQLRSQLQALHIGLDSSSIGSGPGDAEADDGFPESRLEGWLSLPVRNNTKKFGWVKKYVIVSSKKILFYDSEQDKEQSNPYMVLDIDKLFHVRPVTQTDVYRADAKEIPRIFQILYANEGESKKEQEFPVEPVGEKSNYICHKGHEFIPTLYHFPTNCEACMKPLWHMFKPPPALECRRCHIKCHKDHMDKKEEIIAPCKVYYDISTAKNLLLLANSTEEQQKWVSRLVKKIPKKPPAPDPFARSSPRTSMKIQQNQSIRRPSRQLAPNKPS

The test has as its target ROCK2 (human) (UniProt O75116). The test can be described thus: Inhibition of ROCK2 Kinase Activity.
`Cc1ccccc1C(=O)Nc1cc2cc[nH]c(=O)c2cc1Cl` gave an IC50 below 1000 nM.

`O=C(Nc1cc2cc[nH]c(=O)c2cc1Cl)[C@H]1CCCCN1` yielded an IC50 below 1000 nM.

Consider `O=C(CNCCc1cccs1)Nc1ccc2c(=O)[nH]cnc2c1`, for which the half-inhibitory concentration (IC50) was below 1000 nM.

Take `O=C(Nc1cc2cc[nH]c(=O)c2cc1Cl)[C@@H](O)c1ccccc1`: the IC50 is below 1000 nM.

Molecule `O=C(Nc1ccc2c(=O)[nH]cnc2c1)C1(c2ccc(Cl)cc2)CCCC1` yielded a half-maximal inhibitory concentration (IC50) below 1000 nM.

With `CCOC(=O)CCC(=O)Nc1ccc2c(=O)[nH]ccc2c1`, the 50% inhibitory concentration (IC50) was below 1000 nM.

Turning to `CS(=O)(=O)c1ccc(Cl)c(C(=O)Nc2cc3cc[nH]c(=O)c3cc2Cl)c1`, the 50% inhibitory concentration (IC50) was below 1000 nM.

As to `CN(C)C(C(=O)Nc1ccc2c(=O)[nH]ccc2c1)c1ccccc1` (stereo not given), the IC50 is below 1000 nM.

Molecule `O=C(Nc1cc2cc[nH]c(=O)c2cc1Cl)C1CCOCC1` showed an IC50 below 1000 nM.

In turn, `C[C@](O)(C(=O)Nc1cc2cc[nH]c(=O)c2cc1Cl)c1ccccc1` had a 50% inhibitory concentration (IC50) below 1000 nM.

For the molecule `O=C(Nc1ccc2c(=O)[nH]cnc2c1)C1CCNCC1`, the IC50 is below 1000 nM.

`N[C@H](Cc1ccc2ccccc2c1)C(=O)Nc1cc2cc[nH]c(=O)c2cc1Cl` returned a 50% inhibitory concentration (IC50) below 1000 nM.

Consider `CN1CCC(C(=O)Nc2ccc3c(=O)[nH]ccc3c2)CC1`, for which the IC50 was below 1000 nM.

Take `O=C(Nc1cc2cc[nH]c(=O)c2cc1Cl)[C@H](O)c1ccccc1Cl`: the IC50 was below 1000 nM.

In turn, `O=C(CNCC1CCCCC1)Nc1ccc2c(=O)[nH]cnc2c1` gave a half-inhibitory concentration (IC50) below 1000 nM.

`Cc1cc(S(=O)(=O)N2CCNCC2)ccc1C(=O)Nc1cc2cc[nH]c(=O)c2cc1Cl` returned an IC50 below 1000 nM.

The molecule `N[C@H](Cc1cccc2ccccc12)C(=O)Nc1cc2cc[nH]c(=O)c2cc1Cl` yielded an IC50 below 1000 nM.

In the case of `C[C@H]1CN(C)CC[C@@H]1C(=O)Nc1cc2cc[nH]c(=O)c2cc1Cl`, the IC50 was below 1000 nM.

`NCCC(=O)Nc1cc2cc[nH]c(=O)c2cc1Cl` registered an IC50 below 1000 nM.

For `O=C(Nc1cc2cc[nH]c(=O)c2cc1Cl)c1ccc(N2CCOCC2)cc1Cl`, the IC50 was below 1000 nM.

`O=C(Nc1ccc2c(=O)[nH]cnc2c1)C1CCCN1` (stereo not given) came in with an IC50 below 1000 nM.

With `O=C(COc1ccc(Cl)cc1)Nc1ccc2c(=O)[nH]ccc2c1`, the concentration for half-maximal inhibition (IC50) is below 1000 nM.

On to `O=C(CNCC1CCCCC1)Nc1ccc2c(=O)[nH]ccc2c1`, for which the IC50 is below 1000 nM.

On to `C[C@@H]1CNCC[C@@H]1C(=O)Nc1cc2cc[nH]c(=O)c2cc1Cl`, for which the half-maximal inhibitory concentration (IC50) was below 1000 nM.

`O=C(Nc1cc2cc[nH]c(=O)c2cc1Cl)C1CCN(C2CCCCC2)CC1` displayed an IC50 below 1000 nM.

`O=C(Nc1cc2cc[nH]c(=O)c2cc1Cl)C1CCN(Cc2ccncc2)CC1` displayed an IC50 below 1000 nM.

As for `CN1CCN(Cc2ccccc2C(=O)Nc2cc3cc[nH]c(=O)c3cc2Cl)CC1`, the IC50 was below 1000 nM.

As to `O=C(Nc1cc2cc[nH]c(=O)c2cc1Cl)[C@H](O)C1CCCCC1`, the IC50 was below 1000 nM.

`Cc1ccc(F)cc1C(=O)Nc1cc2cc[nH]c(=O)c2cc1Cl`: the IC50 was below 1000 nM.

Regarding `CN1CCC(C(=O)Nc2cc3cc[nH]c(=O)c3cc2C#N)CC1`, the half-maximal inhibitory concentration (IC50) is below 1000 nM.

`COc1cc2c(=O)[nH]ccc2cc1NC(=O)[C@H](N)C1CCCCC1`: the IC50 is below 1000 nM.

`O=C(Nc1cc2nc[nH]c(=O)c2cc1Cl)C(NC1CC1)c1ccccc1` (stereo not given): the 50% inhibitory concentration (IC50) was below 1000 nM.

Regarding `CCOC(=O)CC(=O)Nc1cc2cc[nH]c(=O)c2cc1Cl`, the IC50 is below 1000 nM.

For the molecule `COc1cccc(CC(=O)Nc2ccc3c(=O)[nH]ccc3c2)c1`, the half-inhibitory concentration (IC50) was below 1000 nM.

In turn, `O=C(O)CC(C(=O)Nc1cc2cc[nH]c(=O)c2cc1Cl)c1ccccc1` (stereo not given) had an IC50 below 1000 nM.

For `C[C@H]1CC(=O)CC[C@@H]1C(=O)Nc1cc2cc[nH]c(=O)c2cc1Cl`, the IC50 was below 1000 nM.

`CN1CCC(C(=O)Nc2cc3cc[nH]c(=O)c3cc2F)CC1` had a half-maximal inhibitory concentration (IC50) below 1000 nM.

The molecule `Cc1cc([N+](=O)[O-])ccc1C(=O)Nc1cc2cc[nH]c(=O)c2cc1Cl` registered a half-inhibitory concentration (IC50) below 1000 nM.

Regarding `N[C@@H](Cc1ccccc1)C(=O)Nc1ccc2c(=O)[nH]cnc2c1`, the half-inhibitory concentration (IC50) is below 1000 nM.

`CC(C)O[C@@H](C(=O)Nc1cc2cc[nH]c(=O)c2cc1Cl)c1ccccc1`: the half-maximal inhibitory concentration (IC50) is below 1000 nM.

Take `CN1CCN(CC(=O)Nc2cc3cc[nH]c(=O)c3cc2Cl)CC1`: the IC50 was below 1000 nM.

Molecule `O=C(Nc1ccc2c(=O)[nH]ccc2c1Cl)[C@H]1CNC[C@@H]1c1ccccc1` registered an IC50 below 1000 nM.

Turning to `O=C(Nc1ccc2c(=O)[nH]ccc2c1)c1cccnc1Oc1ccc(Cl)cc1`, the concentration for half-maximal inhibition (IC50) was below 1000 nM.

`O=C(Nc1cc2cc[nH]c(=O)c2cc1Cl)[C@H](O)c1ccccc1` came in with a half-inhibitory concentration (IC50) below 1000 nM.

In the case of `O=C(Nc1cc2cc[nH]c(=O)c2cc1Cl)[C@H]1CCCNC1`, the IC50 was below 1000 nM.

`CN1CCC(C(=O)Nc2cc3cc[nH]c(=O)c3cc2Br)CC1` gave a half-maximal inhibitory concentration (IC50) below 1000 nM.

With `O=C(Nc1cc2cc[nH]c(=O)c2cc1Cl)c1ccccc1CN1CCOCC1`, the IC50 was below 1000 nM.

Consider `O=C(Nc1cc2cc[nH]c(=O)c2cc1Cl)[C@H]1CNCC[C@@H]1c1ccccc1`, for which the half-maximal inhibitory concentration (IC50) is below 1000 nM.

For the molecule `O=C(Nc1cc2cc[nH]c(=O)c2cc1Cl)c1cccnc1Sc1ccccc1`, the IC50 is below 1000 nM.

On to `O=C(CNCC1CCCCC1)Nc1cc2cc[nH]c(=O)c2cc1Cl`, for which the concentration for half-maximal inhibition (IC50) was below 1000 nM.

In turn, `N[C@@H](C(=O)Nc1ccc2c(=O)[nH]cnc2c1)c1ccccc1` displayed an IC50 below 1000 nM.

`O=C(Nc1cc2cc[nH]c(=O)c2cc1Cl)c1cccc2c1CCNC2` displayed an IC50 below 1000 nM.

Molecule `O=C(Nc1ccc2c(=O)[nH]ccc2c1)C1CNCC1c1ccccc1` (stereo not given) registered a 50% inhibitory concentration (IC50) below 1000 nM.

Molecule `N#Cc1ccccc1C(=O)Nc1cc2cc[nH]c(=O)c2cc1Cl` registered an IC50 below 1000 nM.

On to `CC(C)CC(N)C(=O)Nc1ccc2c(=O)[nH]cnc2c1` (stereo not given), for which the 50% inhibitory concentration (IC50) was below 1000 nM.

For `CC(NCCc1cccs1)C(=O)Nc1cc2cc[nH]c(=O)c2cc1Cl` (stereo not given), the half-inhibitory concentration (IC50) was below 1000 nM.

As for `N[C@@H](CC1CCCCC1)C(=O)Nc1cc2cc[nH]c(=O)c2cc1Cl`, the half-maximal inhibitory concentration (IC50) was below 1000 nM.

`Cc1ccc([C@@H](N)C(=O)Nc2cc3cc[nH]c(=O)c3cc2Cl)cc1` showed a half-maximal inhibitory concentration (IC50) below 1000 nM.

The molecule `O=C(Nc1ccc2c(=O)[nH]ccc2c1)[C@@H]1CCCNC1` returned an IC50 below 1000 nM.

On to `COc1cc2c(=O)[nH]ccc2cc1NC(=O)[C@@H](N)C1CCCCC1`, for which the half-inhibitory concentration (IC50) was below 1000 nM.

The molecule `C[C@](O)(C(=O)Nc1cc2cc[nH]c(=O)c2cc1Cl)c1ccc(Cl)cc1` had an IC50 below 1000 nM.

As to `O=c1[nH]ccc2cc(NC(=O)[C@H]3CC[C@@H](O)CC3)c(Cl)cc12`, the concentration for half-maximal inhibition (IC50) is below 1000 nM.

Regarding `O=C(Nc1cc2cc[nH]c(=O)c2cc1Cl)c1ccc(Cl)cc1Cl`, the IC50 was below 1000 nM.

`O=C(Nc1c(Cl)cc2c(=O)[nH]ccc2c1F)[C@H]1CNC[C@@H]1c1ccccc1` had an IC50 below 1000 nM.

As for `O=C(Nc1cc2cc[nH]c(=O)c2cc1Cl)[C@H]1CNC[C@@H]1c1ccc(Cl)cc1`, the IC50 was below 1000 nM.

As to `O=C(Nc1cc2cc[nH]c(=O)c2cc1Cl)[C@@H]1CCCO1`, the IC50 was below 1000 nM.

Regarding `COc1cc2c(=O)[nH]ccc2cc1NC(=O)[C@@H]1CCC[C@H](N)C1`, the IC50 is below 1000 nM.

The molecule `N[C@@H](C(=O)Nc1ccc2c(=O)[nH]ccc2c1)c1ccccc1` displayed a 50% inhibitory concentration (IC50) below 1000 nM.

`O=C(Nc1cc2nc[nH]c(=O)c2cc1Cl)[C@H]1CNC[C@@H]1c1cccc(Br)c1` yielded an IC50 below 1000 nM.

Turning to `CC(=O)O[C@H]1CC[C@@H](C(=O)Nc2cc3cc[nH]c(=O)c3cc2Cl)CC1`, the IC50 is below 1000 nM.
